In patent US6861428B2, “Water-soluble phenylpyridazine compounds and compositions containing the same” (Kowa Co., Ltd., priority 2001, dated 2005):
Read-outs that look alike come from different tables or passages of the source.

Key:
[1] = Water solubility test; assay type: physicochemical; settings: for Solubility (%): purified water, from amount of water required for dissolution
Procedure: Each sample compound was weighed in the amount shown in Table 3, to which purified water was added in 0.05 mL aliquots. The solubility (%) of the compound was determined based on the amount of water required for its dissolution.

[2] = Oral absorbability test on rats and/or mice; assay type: in vivo; settings: orally administered to mice and/or rats, as in Experiment 3, FIGS. 2 to 6
Procedure: (§1) The compound of Example 83 and the comparative compound 3 were suspended at 2 mg/mL with a 0.5% MC solution in mortars, respectively, and were orally administered to male SD rats at 10 mg/5 mL/kg. Upon elapsed time of 0.25, 0.5, 1, 2, 4, 6 and 8 hours after the administration, blood samples were collected and then centrifuged to provide plasma samples. The plasma levels of the respective compounds were determined by HPLC. […] The compound of Example 83 is, therefore, useful as an orally dosable medicine.
In a similar manner as in Experiment 3, test compounds of Examples 23, 25, 143, 193, 245, 246, 247, 248 and 249 were orally administered to mice and/or rats to test their oral absorbability.

[3] = system: interleukin-1β production; assay: Inhibitory activity against interleukin-1β production (LPS-stimulated HL-60 cells, ELISA); assay type: cell-based; settings: lipopolysaccharide 10 μg/mL, 3 days, Table 1, read-out: IL-1β production inhibiting activity IC50
Procedure: Inhibitory Activity Against Interleukin-1β Production
HL-60 cells were cultured for 4 days until confluence on RPMI 1640 medium with 10% fetal bovine serum (FBS) added thereto. The medium was centrifuged. The supernatant was discarded, and the cells were then suspended at 1×10^6 cells/mL on RPMI 1640 medium with 3% FBS, and lipopolysaccharide was added to give a final concentration of 10 μg/mL. The culture was inoculated at 1 mL/well to a 24-well plate. A sample compound was added at 1 μL/well, followed by culturing for 3 days. Three days later, the amount of interleukin-1β in each culture was determined by ELISA. Each IC50 value was determined by a comparison in yield with a control to which no test sample was added.

[4] = Oral absorbability test on rats; assay type: in vivo; settings: male SD rats, oral 10 mg/5 mL/kg, suspension in 0.5% MC, 0.25-8 hours, FIG. 1
Procedure: as §1

| Solubility (%) [1] [%] | Oral absorbability [2] | IC50 [3] [µM] | IC50 ([3]; Homo sapiens, 72 h) [µM] | Oral absorption (plasma level by HPLC) [4] | melting point | Dissolution in amount of added water ([1]; 100 mL purified water added) | SMILES |
| --- | --- | --- | --- | --- | --- | --- | --- |
| 10 | good absorbability | 12.3 |  |  |  |  | COc1ccc(-c2cc(CN(CCO)CCO)c(=O)n(CC3CC3)n2)cc1F.Cl [Example 23, 4-N,N-bis(2-hydroxyethyl)aminomethyl-2-cyclopropylmethyl-6-(3-fluoro-4-methoxyphenyl)-2H-pyridazin-3-one hydrochloride] |
| 0.4 | good absorbability |  | 2.74 |  |  |  | COc1ccc(-c2cc(CN)c(=O)n(CC3CC3)n2)cc1F.Cl [Example 25, 4-aminomethyl-2-cyclopropylmethyl-6-(3-fluoro-4-methoxyphenyl)-2H-pyridazin-3-one hydrochloride] |
| 2 | good absorbability |  |  |  |  |  | COc1ccc(-c2cc(CN(C)C)c(=O)n(Cc3ccc(F)c(F)c3)n2)cc1F.Cl [Example 246, 2-(3,4-difluorobenzyl)-4-dimethylaminomethyl-6-(3-fluoro-4-methoxyphenyl)-2H-pyridazin-3-one hydrochloride] |
| <0.001 |  |  |  | no substantial absorption |  | (insoluble) | CNC(=O)c1cc(-c2ccc(OC)c(F)c2)nn(CC2CC2)c1=O [compound 3, reference compound] |

The next lines start with the compound.

| SMILES | Solubility (%) [1] [%] | Oral absorbability [2] | IC50 [3] [µM] | IC50 ([3]; Homo sapiens, 72 h) [µM] | Oral absorption (plasma level by HPLC) [4] | melting point | Dissolution in amount of added water ([1]; 100 mL purified water added) |
| --- | --- | --- | --- | --- | --- | --- | --- |
| Cc1cc(-c2cc(CN3CCN(C)CC3)c(=O)n(CC(C)C)n2)ccc1F.Cl.Cl [Example 83, 6-(4-fluoro-3-methylphenyl)-2-isobutyl-4-(4-methyl-1-piperazinyl)methyl-2H-pyridazin-3-one dihydrochloride] |  |  |  | 0.27 | good absorption |  |  |
| Cc1cc(-c2cc(CN3CCN(C)CC3)c(=O)n(CC=Cc3ccc(Cl)cc3)n2)ccc1F.Cl.Cl [Example 143, 2-(4-chlorocinnamyl)-6-(4-fluoro-3-methylphenyl)-4-(4-methyl-1-piperazinyl)methyl-2H-pyridazin-3-one dihydrochloride] | 10 | good absorbability |  | 8.55 |  | 229.7 to 243.3 °C (dec.) |  |
| COc1ccc(-c2cc(CN3CCNCC3)c(=O)n(Cc3ccc(F)cc3)n2)cc1F.Cl.Cl [Example 193, 2-(4-fluorobenzyl)-6-(3-fluoro-4-methoxyphenyl)-4-(1-piperazinyl)methyl-2H-pyridazin-3-one dihydrochloride] | 5 | good absorbability |  |  |  |  |  |
| COc1ccc(-c2cc(CN3CCN(C)CC3)c(=O)n(Cc3ccc(F)c(F)c3)n2)cc1F.Cl.Cl [Example 245, 2-(3,4-difluorobenzyl)-6-(3-fluoro-4-methoxyphenyl)-4-(4-methyl-1-piperazinyl)methyl-2H-pyridazin-3-one dihydrochloride] | 10 | good absorbability |  |  |  |  |  |
| Cc1cc(-c2cc(CN3CCN(C)CC3)c(=O)n(CCCc3ccc(Cl)cc3)n2)ccc1F.Cl.Cl [Example 247, 2-[3-(4-chlorophenyl)propyl]-6-(4-fluoro-3-methylphenyl)-4-(4-methyl-1-piperazinyl)methyl-2H-pyridazin-3-one dihydrochloride] | 10 | good absorbability |  |  |  |  |  |
| COc1ccc(-c2cc(CN3CCN(C)CC3)c(=O)n(CC=Cc3ccc(Cl)cc3)n2)cc1F.Cl.Cl [Example 248, 2-(4-chlorocinnamyl)-6-(3-fluoro-4-methoxyphenyl)-4-(4-methyl-1-piperazinyl)methyl-2H-pyridazin-3-one dihydrochloride] | 0.06 | good absorbability |  |  |  |  |  |
| COc1ccc(-c2cc(CN3CCN(CCO)CC3)c(=O)n(CC=Cc3ccc(Cl)cc3)n2)cc1F.Cl.Cl [Example 249, 2-(4-chlorocinnamyl)-6-(3-fluoro-4-methoxyphenyl)-4-[4-(2-hydroxyethyl)-1-piperazinyl]methyl-2H-pyridazin-3-one dihydrochloride] | 0.03 | good absorbability |  |  |  |  |  |
